Legend:
HSP90 protein = assay: STD 1H NMR spectroscopy binding to HSP90; details: compound to protein ratio approximately 100:1, 20 mM sodium phosphate buffer pH 6.7
Procedure: (§1) FIG. 9 is a STD 1H NMR Spectrum of Compound 1 and 20 with HSP90 protein. STD NMR experiments were performed at 19° C. on a Varian INNOVA 500 MHz spectrometer equipped with a triple resonance HCN cold probe. A 1D saturation transfer difference pulse sequence with internal subtraction via phase cycling was employed. Residual HDO signal was removed using a W5 WATERGATE pulse sequence, with a […] interpulse delay. On resonance irradiation of the protein was performed at −0.5 ppm, with off-resonance irradiation at 34 ppm. The irradiation power was (g/2p)B1=93 Hz applied through a train of 50 ms eburp1 pulses with a 1 ms delay between the pulses. The total presaturation time was 5.1 s. The relaxation delay was set to 0.1 s. A 30 ms spin-lock pulse with a strength of (g/2p)B1=4600 Hz was used to eliminate background protein signals. The total number of scans was between 1536, with a sweep width of 16 ppm. Spectra were multiplied by a 1 Hz exponential line-broadening function prior to Fourier transform. Compounds 1 (85 uM) and 20 (85 uM) and HSP90 protein (0.85 uM) in 20 mM sodium phosphate buffer (pH 6.7) was used. A) STD 1H NMR spectrum, B) preset reference, and C) STD reference-no saturation/difference.
as §1, with “STD” for “FIG. 9 is a STD 1H NMR Spectrum of Compound 1 and 20 with HSP90 protein. STD”, “employed (Mayer and Meyer, JACS, 2001, 123, 6108-6117).” for “employed.”, “delay (Liu et. al, J. Magn. Res., 1998, 132, 125).” for “delay.”, “1536-2048,” for “1536,”, “transform.” for “transform. Compounds 1 (85 uM) and 20 (85 uM) and HSP90 protein (0.85 uM) in 20 mM sodium phosphate buffer (pH 6.7) was used. A) STD 1H NMR spectrum, B) preset reference, and C) STD reference-no saturation/difference.”
The compound to protein ratio was fixed at approximately 100:1 in 20 mM sodium phosphate buffer (pH 6.7). Compound 20 was used as a reference compound to compare binding affinities of various compounds to HSP90 by comparing the relative intensity of NOE effects in the spectra of compounds 1 and 20 (see FIG. 9), compounds 2 and 20, compounds 5 and 20, compounds 13 and 20, and compounds 15 and 20 (near equamolar quantities of each) in the presence of HSP90 protein. Using the NOE signals for the imidazole proton, and comparing peak heights, the relative kd of the compound pairs were compared (see Meyer and Peters, T. Angew. Chem. Int. Ed. 2003, 42, 864). The kds of the compound pairs ranged from 1:1 to 8:1. These differences in binding affinities correlated to the potency of each respective compound's ability to rescue SCG neurons from NGF withdrawal as previously reported.

HSP70 = assay: HSP protein expression in PC12 / PC12rtTA cells (immunoblot); format: cell-based; details: for HSP70 production: PC12rtTA cells infected with AdNRG, Adp75 or AdLacZ, 30 hours (FIG. 6A)
Procedure: FIGS. 4A-4C are photographs of Western blots which illustrate that compound 1 treatment of PC12 cells induces expression of HSP70. A: PC12 cells were infected with 5 MOI of AdNRG (NRG) or AdLacZ (LacZ) as indicated. Cells were left untreated (0) or treated with 40 μM compound 1 at time of infection (30), one hour before lysis (1), or at both times (30+1). Cells were lysed thirty hours after infection, normalized for protein content, and analyzed for levels of phospho-Ser^63 c-Jun and total c-Jun, total JNK, IkBα, and NRAGE by immunoblotting. Lysates from untreated cells are indicated by ‘−’. B: PC12 cells were treated with the indicated concentrations of compound 1 for 18 hours and then lysed, normalized for protein content, and analyzed for levels of HSP70 by immunoblotting. Lysates from untreated cells are indicated by ‘−’. C: RNA isolated from PC12^rtTA cells treated with increasing concentrations of compound 1 for 18 hours was analyzed by rtPCR using primers specific to HSP70, HSP25, HSP90 or actin, as indicated. Experiments in Panel A and B were performed three times and that in Panel C was performed twice, with essentially identical results. D: PC12^rtTA cells were infected with AdNRG at 5 MOI, Adp75 at 50 MOI, or the control virus AdLacZ at 50 MOI. At time of infection, the cells were treated with increasing concentrations of compound 1, or with vehicle alone, as indicated. Thirty hours after infection, cells were lysed, normalized for protein content, and analyzed for levels of c-Jun phosphorylation, HSP70, HSP25, HSP40, NRAGE, p75NTR, JNK-1 and IkBα, as indicated.
FIGS. 6A, 6B and 6C are graphs and photographs of Western blots which illustrate that compound 1 analogues inhibit JNK activation and induce expression of HSP70. A: PC12^rtTA cells were infected with 5 MOI of AdNRG, 50 MOI of Adp75 or 50 MOI of the control virus AdLacZ. At time of infection, the cells were treated with an increasing concentrations of compound 1, or its analogues, compound 2, compound 3, compound 4, or with vehicle alone, as indicated. Thirty hours after infection, cells were lysed, normalized for protein levels, and analyzed for levels of HSP70, HSP25 and JNK-1, as indicated. B: PC12^rtTA cells were treated as above and after 40 hours infection were assayed for death using the lactate dehydrogenase (LDH) assay. Results are normalized relative to those obtained with 1% Triton, and represent the mean±standard deviation of a representative experiment performed in triplicate (*=P<0.025 relative to ‘0’ for each compound concentration). C: PC12^rtTA cells were infected with 50 MOI of LacZ or 5 MOI of AdNRG50 and at the time of infection, were treated with 40 μM compound 1, or its analogues, compound 2, compound 3, compound 4, or with vehicle alone, as indicated. Thirty hours after infection, cells were lysed, normalized for protein levels, and were analyzed for phosphorylated c-Jun, total c-Jun, NRAGE and JNK-1, as indicated. Experiments in Panel A and C were performed twice and that in B were performed twice, with essentially identical results.
To address this, SCG neurons were treated with compound 1 for 18 hours then lysed and assessed for HSP70 levels by immunoblot. Uninfected PC12rtTA cells were treated in a similar manner. […] To test if the accumulation of HSP70 induced by compound 1 reflected increased steady state levels of its mRNA, RNA was isolated from PC12 cells treated with increasing concentrations of compound 1 for 18 hours and the cell lysates subjected to semi-quantitative rtPCR. […] HSP protein levels were also assessed in PC12rtTA cells infected with AdLacZ, Adp75, or AdNRG, and at the same time, exposed to compound 1.

[1] = cells infected with LacZ or Adp75, increasing concentrations

SMILES	binding to HSP90 protein by STD 1H NMR (HSP90 protein)	HSP70 production (HSP70)	HSP70 levels versus AdNRG alone (HSP70; cells infected with AdNRG)	HSP40 protein level (HSP70; [1])	HSP70 and HSP25 protein levels (HSP70; [1])	cellular HSP70 levels (HSP70; uninfected PC12rtTA cells, 18 hours)
NS(=O)(=O)c1nn2cc(-c3ccc(N4CCOCC4)cc3)nc2s1 [Compound 2]	directly bind	robustly induced HSP70 production	–	–	–	–
NS(=O)(=O)c1nn2cc(-c3ccccc3)nc2s1 [Compound 1]	directly bind	induced HSP70 production	substantially higher	not HSP40	robust increase	large increase
